Results as given in US20210355223A1, “Combinations for Treating Cancer” (Pfizer Inc., priority 2018, published 2021).

Target: IL-2Rαβ (Homo sapiens, UniProt P01589+P14784)
Details: relative to IL-2 as standard
From the text: The term “CD-122-biased cytokine agonist”, as used herein, refers to an agonist that has a greater affinity for binding to IL-2Rβ than to IL-2Rαβ.

IL-2Rαβ, sequence (P01589 22-240 limits assumed): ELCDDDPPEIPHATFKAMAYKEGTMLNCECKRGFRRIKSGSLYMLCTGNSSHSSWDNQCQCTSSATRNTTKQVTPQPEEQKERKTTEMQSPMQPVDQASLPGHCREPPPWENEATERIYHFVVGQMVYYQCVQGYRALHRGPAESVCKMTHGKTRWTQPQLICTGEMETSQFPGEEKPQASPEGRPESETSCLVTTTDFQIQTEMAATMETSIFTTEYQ
IL-2Rαβ, sequence (P14784 27-240 limits assumed): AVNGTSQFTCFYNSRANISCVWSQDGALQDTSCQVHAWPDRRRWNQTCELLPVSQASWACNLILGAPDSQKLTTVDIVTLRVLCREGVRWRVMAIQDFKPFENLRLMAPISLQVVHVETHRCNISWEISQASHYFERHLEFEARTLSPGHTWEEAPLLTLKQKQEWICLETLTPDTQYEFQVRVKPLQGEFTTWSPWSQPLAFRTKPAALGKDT

(2,7-(bis-methoxyPEG10kD-carboxyamide)(9H-fluorene-9-yl)methyl N-carbamate)6avginterleukin-2 [bempegaldesleukin]
decrease in affinity to IL-2Rαβ relative to IL-2: ~60 fold
